Legend:
[1] = DRUGMATRIX: ATPase, Na+/K+ enzyme inhibition (substrate: ATP); assay type: tissue-based, Sus scrofa, Heart; details: Not Active = under 50% inhibition at 10 µM
[2] = target: 5-hydroxytryptamine receptor 6 (Homo sapiens, UniProt P50406); assay type: cell membranes, HeLa, Membrane; details: hela; further: in other assays of this panel Not Active means under 50% inhibition at 10 µM
[3] = target: Sodium-dependent dopamine transporter (Homo sapiens, UniProt Q01959); test: DRUGMATRIX: Dopamine Transporter radioligand binding (ligand: [125I] RTI-55); assay type: cell membranes, CHO-K1, Membrane; details: Not Active = under 50% inhibition at 10 µM; for Ki: read-out: Ki
[4] = target: Melanocortin receptor 5 (Homo sapiens, UniProt P33032); assay type: cell membranes, Membrane; details: hek293; further: in other assays of this panel Not Active means under 50% inhibition at 10 µM
[5] = target: T1, Neuropeptide Y receptor type 1 (Homo sapiens, UniProt P25929); assay type: cell membranes, Membrane; details: sk-n-mc; further: in other assays of this panel Not Active means under 50% inhibition at 10 µM
T1 sequence (P25929 whole entry): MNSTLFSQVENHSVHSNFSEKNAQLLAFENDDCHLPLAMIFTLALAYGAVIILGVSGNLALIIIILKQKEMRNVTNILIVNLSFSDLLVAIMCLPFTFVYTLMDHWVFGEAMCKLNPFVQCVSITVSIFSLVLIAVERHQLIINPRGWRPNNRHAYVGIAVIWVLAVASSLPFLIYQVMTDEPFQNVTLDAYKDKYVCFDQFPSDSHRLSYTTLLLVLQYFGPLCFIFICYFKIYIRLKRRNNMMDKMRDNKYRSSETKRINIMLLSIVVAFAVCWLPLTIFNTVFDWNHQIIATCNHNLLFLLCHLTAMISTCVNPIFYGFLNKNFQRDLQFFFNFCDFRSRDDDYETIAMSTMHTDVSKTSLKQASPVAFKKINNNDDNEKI

[6] = target: Cytochrome P450 3A4 (Homo sapiens, UniProt P08684); details: bti-tn-5b1-4; further: in other assays of this panel Not Active means under 50% inhibition at 10 µM
[7] = target: T2, Estrogen receptor (Homo sapiens, UniProt P03372); details: sf9; further: in other assays of this panel Not Active means under 50% inhibition at 10 µM
T2 sequence (P03372 whole entry): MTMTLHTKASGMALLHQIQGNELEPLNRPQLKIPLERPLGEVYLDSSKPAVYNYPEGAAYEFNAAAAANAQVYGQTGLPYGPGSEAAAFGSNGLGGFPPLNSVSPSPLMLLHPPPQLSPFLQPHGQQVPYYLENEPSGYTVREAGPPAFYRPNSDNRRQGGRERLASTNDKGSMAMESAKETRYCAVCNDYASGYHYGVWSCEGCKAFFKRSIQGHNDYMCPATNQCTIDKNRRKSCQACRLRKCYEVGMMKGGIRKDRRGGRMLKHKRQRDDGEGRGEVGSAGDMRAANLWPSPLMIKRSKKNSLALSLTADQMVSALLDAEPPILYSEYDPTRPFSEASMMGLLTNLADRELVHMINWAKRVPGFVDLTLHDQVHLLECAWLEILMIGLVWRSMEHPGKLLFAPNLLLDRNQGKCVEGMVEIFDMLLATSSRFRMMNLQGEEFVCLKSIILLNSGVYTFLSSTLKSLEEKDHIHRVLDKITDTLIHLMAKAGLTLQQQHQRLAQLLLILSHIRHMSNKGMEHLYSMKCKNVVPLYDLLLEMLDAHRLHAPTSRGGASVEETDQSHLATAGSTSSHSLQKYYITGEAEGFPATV

Sequence of Cytochrome P450 3A4 (P08684 whole entry): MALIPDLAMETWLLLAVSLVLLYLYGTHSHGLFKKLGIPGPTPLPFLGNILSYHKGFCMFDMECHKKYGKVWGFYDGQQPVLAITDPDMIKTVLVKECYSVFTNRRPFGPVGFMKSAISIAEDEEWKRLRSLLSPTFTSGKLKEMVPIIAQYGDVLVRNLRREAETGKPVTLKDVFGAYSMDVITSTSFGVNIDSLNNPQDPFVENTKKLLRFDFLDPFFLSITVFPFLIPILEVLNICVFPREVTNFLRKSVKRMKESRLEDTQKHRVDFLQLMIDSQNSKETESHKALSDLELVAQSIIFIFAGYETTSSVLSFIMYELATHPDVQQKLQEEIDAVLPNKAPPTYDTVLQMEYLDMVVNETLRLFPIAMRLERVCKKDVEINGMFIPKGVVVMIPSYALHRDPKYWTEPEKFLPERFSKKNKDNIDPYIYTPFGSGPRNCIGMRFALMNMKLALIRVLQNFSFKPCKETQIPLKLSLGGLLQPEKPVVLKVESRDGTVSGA
Sequence of 5-hydroxytryptamine receptor 6 (P50406 whole entry): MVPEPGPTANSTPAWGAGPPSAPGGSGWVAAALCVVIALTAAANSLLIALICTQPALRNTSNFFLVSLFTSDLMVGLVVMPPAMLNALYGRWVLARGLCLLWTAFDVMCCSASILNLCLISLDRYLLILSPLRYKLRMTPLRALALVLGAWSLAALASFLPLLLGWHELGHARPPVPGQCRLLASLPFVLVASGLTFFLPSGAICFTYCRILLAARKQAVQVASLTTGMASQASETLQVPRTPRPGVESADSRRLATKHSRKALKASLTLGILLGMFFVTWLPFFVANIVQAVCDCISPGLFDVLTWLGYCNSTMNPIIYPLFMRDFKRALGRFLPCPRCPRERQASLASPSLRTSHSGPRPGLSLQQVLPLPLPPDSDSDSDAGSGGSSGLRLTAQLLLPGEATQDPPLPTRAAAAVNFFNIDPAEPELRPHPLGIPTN
Sequence of Sodium-dependent dopamine transporter (Q01959 whole entry): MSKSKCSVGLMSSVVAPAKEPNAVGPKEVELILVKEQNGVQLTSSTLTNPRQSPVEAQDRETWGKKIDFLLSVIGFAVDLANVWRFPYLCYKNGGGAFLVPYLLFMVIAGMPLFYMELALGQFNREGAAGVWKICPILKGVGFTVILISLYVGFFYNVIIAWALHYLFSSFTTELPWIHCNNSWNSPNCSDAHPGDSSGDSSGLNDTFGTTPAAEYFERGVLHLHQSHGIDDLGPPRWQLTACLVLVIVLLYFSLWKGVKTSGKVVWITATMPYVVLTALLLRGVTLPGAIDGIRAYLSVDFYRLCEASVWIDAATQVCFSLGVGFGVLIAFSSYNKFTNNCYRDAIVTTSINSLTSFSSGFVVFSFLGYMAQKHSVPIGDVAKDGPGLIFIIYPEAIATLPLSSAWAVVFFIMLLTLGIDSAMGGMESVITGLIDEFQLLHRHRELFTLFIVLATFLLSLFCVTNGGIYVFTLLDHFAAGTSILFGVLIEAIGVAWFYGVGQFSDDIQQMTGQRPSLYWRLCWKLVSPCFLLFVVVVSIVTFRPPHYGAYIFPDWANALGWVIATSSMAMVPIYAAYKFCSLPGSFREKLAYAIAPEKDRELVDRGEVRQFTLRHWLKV
Sequence of Melanocortin receptor 5 (P33032 whole entry): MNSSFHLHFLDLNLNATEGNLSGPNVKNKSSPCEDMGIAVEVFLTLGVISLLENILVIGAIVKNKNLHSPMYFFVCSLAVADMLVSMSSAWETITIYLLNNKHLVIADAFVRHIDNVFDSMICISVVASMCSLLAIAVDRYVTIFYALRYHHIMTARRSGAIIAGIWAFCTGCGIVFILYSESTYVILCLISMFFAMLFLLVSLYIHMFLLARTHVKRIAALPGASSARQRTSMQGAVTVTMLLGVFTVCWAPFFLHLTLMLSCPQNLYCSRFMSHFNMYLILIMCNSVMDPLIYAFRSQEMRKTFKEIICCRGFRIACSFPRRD

Row | Compound | IC50 [1] | Ki [1] | IC50 [2] | IC50 ([3]; cho-k1) | IC50 [4] | IC50 [5] | IC50 [6] | Ki [6] | IC50 [7] | IC50 ([3]; read-out: IC50) | Ki [3]
1 | O=C1CC[C@H](N2C(=O)c3ccccc3C2=O)C(=O)N1 | Not Active | Not Active | Not Active | Not Active | Not Active | Not Active | Not Active | Not Active | – | – | –
2 | CC(=O)Nc1ccc(O)cc1 [ACETAMINOPHEN] | Not Active | Not Active | Not Active | Not Active | Not Active | Not Active | Not Active | Not Active | – | – | –
3 | CCOC(=O)[C@H](CCc1ccccc1)N[C@H]1CCc2ccccc2N(CC(=O)O)C1=O [BENAZEPRIL] | Not Active | Not Active | Not Active | Not Active | Not Active | Not Active | Not Active | Not Active | – | – | –
4 | O=C1CC2(CCCC2)CC(=O)N1CCCCN1CCN(c2ncccn2)CC1 [BUSPIRONE] | Not Active | Not Active | Not Active | Not Active | Not Active | Not Active | – | – | – | – | –
5 | O=NN(CCCl)C(=O)NCCCl [CARMUSTINE] | Not Active | Not Active | Not Active | Not Active | Not Active | Not Active | – | – | Not Active | – | –
6 | CC1=C(C(=O)O)N2C(=O)[C@@H](NC(=O)[C@H](N)c3ccccc3)[C@H]2SC1 [CEPHALEXIN ANHYDROUS] | Not Active | Not Active | Not Active | Not Active | Not Active | Not Active | – | – | Not Active | – | –
7 | O=C(N[C@H](CO)[C@H](O)c1ccc([N+](=O)[O-])cc1)C(Cl)Cl [CHLORAMPHENICOL] | Not Active | Not Active | Not Active | Not Active | Not Active | Not Active | – | – | Not Active | – | –
8 | ClC(Cl)Cl [CHLOROFORM] | Not Active | Not Active | Not Active | Not Active | Not Active | Not Active | Not Active | Not Active | – | – | –
9 | CCOC(=O)C(C)(C)Oc1ccc(Cl)cc1 [CLOFIBRATE] | Not Active | Not Active | Not Active | Not Active | Not Active | Not Active | – | – | Not Active | – | –
10 | C[C@@H]1C[C@@H]([C@H](O)CC2CC(=O)NC(=O)C2)C(=O)[C@@H](C)C1 [CYCLOHEXIMIDE] | Not Active | Not Active | Not Active | Not Active | Not Active | Not Active | – | – | – | – | –
11 | C/C=C/C[C@@H](C)[C@@H](O)[C@H]1C(=O)N[C@@H](CC)C(=O)N(C)CC(=O)N(C)[C@@H](CC(C)C)C(=O)N[C@@H](C(C)C)C(=O)N(C)[C@@H](CC(C)C)C(=O)N[C@@H](C)C(=O)N[C@H](C)C(=O)N(C)[C@@H](CC(C)C)C(=O)N(C)[C@@H](CC(C)C)C(=O)N(C)[C@@H](C(C)C)C(=O)N1C [CYCLOSPORINE] | Not Active | Not Active | Not Active | Not Active | Not Active | Not Active | – | – | Not Active | – | –
12 | CC(=O)Nc1c(I)c(NC(C)=O)c(I)c(C(=O)O)c1I [DIATRIZOIC ACID] | Not Active | Not Active | Not Active | Not Active | Not Active | Not Active | Not Active | Not Active | – | – | –
13 | CCN1CC(CCN2CCOCC2)C(c2ccccc2)(c2ccccc2)C1=O (configuration not stated) [DOXAPRAM] | Not Active | Not Active | Not Active | Not Active | Not Active | Not Active | Not Active | Not Active | – | – | –
14 | Cn1c(=O)c2c(ncn2CC2OCCO2)n(C)c1=O [DOXOFYLLINE] | Not Active | Not Active | Not Active | Not Active | Not Active | Not Active | Not Active | Not Active | – | – | –
15 | C[C@]12CC[C@@H]3c4ccc(OC(=O)c5ccccc5)cc4CC[C@H]3[C@@H]1CC[C@@H]2O [ESTRADIOL BENZOATE] | Not Active | Not Active | Not Active | Not Active | Not Active | Not Active | Not Active | Not Active | – | – | –
16 | C[C@]12CC[C@@H]3c4ccc(O)cc4CC[C@H]3[C@@H]1CC[C@@H]2O [ESTRADIOL] | Not Active | Not Active | Not Active | – | Not Active | Not Active | Not Active | Not Active | – | 14.9 µM | 11.8 µM
17 | CC[C@@H](CO)NCCN[C@@H](CC)CO [ETHAMBUTOL] | Not Active | Not Active | Not Active | Not Active | Not Active | Not Active | Not Active | Not Active | – | – | –
18 | CN(C)c1ccc(C(=C2C=CC(=[N+](C)C)C=C2)c2ccc(N(C)C)cc2)cc1.[Cl-] [GENTIAN VIOLET] | Not Active | Not Active | Not Active | – | Not Active | Not Active | – | – | Not Active | 4.07 µM | 3.23 µM
19 | NC(=O)NO [HYDROXYUREA] | Not Active | Not Active | Not Active | Not Active | Not Active | Not Active | – | – | – | – | –
20 | Nc1ccn([C@@H]2CS[C@H](CO)O2)c(=O)n1 [LAMIVUDINE] | Not Active | Not Active | Not Active | Not Active | Not Active | Not Active | Not Active | Not Active | – | – | –
21 | C#C[C@]1(O)CC[C@H]2[C@@H]3CCc4cc(OC)ccc4[C@H]3CC[C@@]21C [MESTRANOL] | Not Active | Not Active | Not Active | Not Active | Not Active | Not Active | Not Active | Not Active | – | – | –
22 | CC(C)(C(=O)c1cccnc1)c1cccnc1 [METYRAPONE] | Not Active | Not Active | Not Active | Not Active | Not Active | Not Active | – | – | Not Active | – | –
23 | COc1ccc2cc([C@H](C)C(=O)O)ccc2c1 [NAPROXEN] | Not Active | Not Active | Not Active | Not Active | Not Active | Not Active | – | – | – | – | –
24 | COC(=O)C1=C(C)NC(C)=C(C(=O)OCC(C)C)C1c1ccccc1[N+](=O)[O-] (configuration not stated) [NISOLDIPINE] | Not Active | Not Active | Not Active | Not Active | Not Active | Not Active | – | – | Not Active | – | –
25 | C#C[C@]1(OC(C)=O)CC[C@H]2[C@@H]3CCC4=CC(=O)CC[C@@H]4[C@H]3CC[C@@]21C [NORETHINDRONE ACETATE] | Not Active | Not Active | Not Active | Not Active | Not Active | Not Active | Not Active | Not Active | – | – | –
26 | CCn1cc(C(=O)O)c(=O)c2cc(F)c(N3CCN(C)CC3)cc21 [PEFLOXACIN] | Not Active | Not Active | Not Active | Not Active | Not Active | Not Active | – | – | Not Active | – | –
27 | O=C(C1CCCCC1)N1CC(=O)N2CCc3ccccc3C2C1 (configuration not stated) [PRAZIQUANTEL] | Not Active | Not Active | Not Active | Not Active | Not Active | Not Active | Not Active | Not Active | – | – | –
28 | CCN(CC)CCOC(=O)c1ccc(N)cc1 [PROCAINE] | Not Active | Not Active | Not Active | Not Active | Not Active | Not Active | Not Active | Not Active | – | – | –
29 | CCCN(CCC)C(=O)C(CCC(=O)O)NC(=O)c1ccccc1 (configuration not stated) [PROGLUMIDE] | Not Active | Not Active | Not Active | Not Active | Not Active | Not Active | Not Active | Not Active | – | – | –

Reference: ChEMBL document CHEMBL1909046, “DrugMatrix in vitro pharmacology data”
